Reference: paper PMC8799717, “Pharmacological targeting PIKfyve and tubulin as an effective treatment strategy for double-hit lymphoma” (Cell Death Discovery, 2022)

How the values were obtained:
Assay in all cases: biochemical
Parameters in all cases: KINOMEscan active-site-directed competition binding panel, 468 kinases, percent of DMSO control at 1 uM
Settings in all cases: KINOMEscan binding, percent of DMSO control; read-out: Ctrl%
[1] = biological target: FER (Homo sapiens, UniProt P16591)
[2] = biological target: MARK4 (Homo sapiens, UniProt Q96L34)
[3] = biological target: PIK3C2B (Homo sapiens, UniProt O00750)
[4] = biological target: FGR (Homo sapiens, UniProt P09769)
[5] = biological target: EGFR(E746-A750del) (Homo sapiens, UniProt P00533, DEL746-750)
[6] = biological target: WNK1 (Homo sapiens, UniProt Q9H4A3)
[7] = biological target: STK36 (Homo sapiens, UniProt Q9NRP7)
[8] = biological target: T1, ABL1(Y253F)-phosphorylated (Homo sapiens, UniProt P00519, Y253F)
T1 construct: phosphorylated

[9] = biological target: T2, RSK4(Kin.Dom.1-N-terminal) (Homo sapiens, UniProt Q9UK32)
T2 construct: gene RPS6KA6; Kin.Dom.1-N-terminal

[10] = biological target: CAMK1G (Homo sapiens, UniProt Q96NX5)
[11] = biological target: TGFBR2 (Homo sapiens, UniProt P37173)
[12] = biological target: T3, ADCK3 (Homo sapiens, UniProt Q8NI60)
T3 construct: gene COQ8A

[13] = biological target: PAK4 (Homo sapiens, UniProt O96013)
[14] = biological target: T4, VPS34 (Homo sapiens, UniProt Q8NEB9)
T4 construct: gene PIK3C3

[15] = biological target: EPHB6 (Homo sapiens, UniProt O15197)
[16] = biological target: PRKG2 (Homo sapiens, UniProt Q13237)
[17] = biological target: MAP3K2 (Homo sapiens, UniProt Q9Y2U5)
[18] = biological target: EPHA7 (Homo sapiens, UniProt Q15375)
[19] = biological target: T5, MRCKA (Homo sapiens, UniProt Q5VT25)
T5 construct: gene CDC42BPA

[20] = biological target: TGFBR1 (Homo sapiens, UniProt P36897)
[21] = biological target: TESK1 (Homo sapiens, UniProt Q15569)
[22] = biological target: CSNK2A2 (Homo sapiens, UniProt P19784)
[23] = biological target: TAOK1 (Homo sapiens, UniProt Q7L7X3)
[24] = biological target: T6, JNK1 (Homo sapiens, UniProt P45983)
T6 construct: gene MAPK8

Chain of STK36 (Q9NRP7 whole entry): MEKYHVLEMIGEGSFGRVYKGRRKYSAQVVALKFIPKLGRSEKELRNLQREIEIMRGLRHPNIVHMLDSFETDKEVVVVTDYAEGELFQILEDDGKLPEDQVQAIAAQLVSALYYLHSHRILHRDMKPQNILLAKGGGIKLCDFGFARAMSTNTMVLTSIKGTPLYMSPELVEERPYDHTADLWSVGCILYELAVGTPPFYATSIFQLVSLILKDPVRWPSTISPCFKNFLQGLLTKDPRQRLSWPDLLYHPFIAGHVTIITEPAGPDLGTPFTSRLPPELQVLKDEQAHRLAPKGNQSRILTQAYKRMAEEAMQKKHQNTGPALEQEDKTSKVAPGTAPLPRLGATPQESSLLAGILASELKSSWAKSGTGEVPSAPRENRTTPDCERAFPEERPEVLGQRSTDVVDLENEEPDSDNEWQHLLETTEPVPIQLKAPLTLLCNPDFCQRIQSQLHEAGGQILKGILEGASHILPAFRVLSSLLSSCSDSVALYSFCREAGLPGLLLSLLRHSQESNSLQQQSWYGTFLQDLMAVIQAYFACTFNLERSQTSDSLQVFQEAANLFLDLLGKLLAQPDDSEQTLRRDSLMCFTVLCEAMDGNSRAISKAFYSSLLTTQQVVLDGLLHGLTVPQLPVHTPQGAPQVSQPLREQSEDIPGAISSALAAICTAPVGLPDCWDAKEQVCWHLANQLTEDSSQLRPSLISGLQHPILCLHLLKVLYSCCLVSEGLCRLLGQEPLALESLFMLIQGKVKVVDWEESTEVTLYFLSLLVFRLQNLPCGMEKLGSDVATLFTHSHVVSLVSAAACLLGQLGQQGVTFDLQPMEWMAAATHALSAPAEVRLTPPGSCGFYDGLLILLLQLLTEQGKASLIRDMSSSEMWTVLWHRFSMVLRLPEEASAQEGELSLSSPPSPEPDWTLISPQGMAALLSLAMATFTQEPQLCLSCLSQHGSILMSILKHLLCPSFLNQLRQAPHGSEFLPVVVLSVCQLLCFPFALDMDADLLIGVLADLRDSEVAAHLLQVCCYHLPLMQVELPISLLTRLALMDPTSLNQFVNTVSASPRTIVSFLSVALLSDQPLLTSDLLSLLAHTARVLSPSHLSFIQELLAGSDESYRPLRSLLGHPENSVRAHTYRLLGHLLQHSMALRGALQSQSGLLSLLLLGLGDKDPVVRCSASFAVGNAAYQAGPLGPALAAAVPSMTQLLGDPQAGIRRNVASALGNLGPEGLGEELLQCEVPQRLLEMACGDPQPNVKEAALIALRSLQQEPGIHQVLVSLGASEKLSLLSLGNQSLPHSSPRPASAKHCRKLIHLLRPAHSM
Chain of FGR (P09769 whole entry): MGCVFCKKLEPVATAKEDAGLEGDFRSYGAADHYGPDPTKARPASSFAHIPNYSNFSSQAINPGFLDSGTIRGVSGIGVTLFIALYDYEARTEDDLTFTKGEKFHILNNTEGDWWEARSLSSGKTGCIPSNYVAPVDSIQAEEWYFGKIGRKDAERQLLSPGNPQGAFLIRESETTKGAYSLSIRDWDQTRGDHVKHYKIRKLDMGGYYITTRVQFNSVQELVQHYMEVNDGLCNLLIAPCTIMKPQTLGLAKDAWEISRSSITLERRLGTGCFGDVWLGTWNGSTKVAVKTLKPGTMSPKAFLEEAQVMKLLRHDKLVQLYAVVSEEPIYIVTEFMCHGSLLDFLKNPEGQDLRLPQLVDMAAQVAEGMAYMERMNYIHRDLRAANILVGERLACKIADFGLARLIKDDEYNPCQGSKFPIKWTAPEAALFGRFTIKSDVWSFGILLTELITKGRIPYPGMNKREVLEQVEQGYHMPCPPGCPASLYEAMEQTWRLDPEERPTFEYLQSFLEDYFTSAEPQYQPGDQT
Chain of MAP3K2 (Q9Y2U5 whole entry): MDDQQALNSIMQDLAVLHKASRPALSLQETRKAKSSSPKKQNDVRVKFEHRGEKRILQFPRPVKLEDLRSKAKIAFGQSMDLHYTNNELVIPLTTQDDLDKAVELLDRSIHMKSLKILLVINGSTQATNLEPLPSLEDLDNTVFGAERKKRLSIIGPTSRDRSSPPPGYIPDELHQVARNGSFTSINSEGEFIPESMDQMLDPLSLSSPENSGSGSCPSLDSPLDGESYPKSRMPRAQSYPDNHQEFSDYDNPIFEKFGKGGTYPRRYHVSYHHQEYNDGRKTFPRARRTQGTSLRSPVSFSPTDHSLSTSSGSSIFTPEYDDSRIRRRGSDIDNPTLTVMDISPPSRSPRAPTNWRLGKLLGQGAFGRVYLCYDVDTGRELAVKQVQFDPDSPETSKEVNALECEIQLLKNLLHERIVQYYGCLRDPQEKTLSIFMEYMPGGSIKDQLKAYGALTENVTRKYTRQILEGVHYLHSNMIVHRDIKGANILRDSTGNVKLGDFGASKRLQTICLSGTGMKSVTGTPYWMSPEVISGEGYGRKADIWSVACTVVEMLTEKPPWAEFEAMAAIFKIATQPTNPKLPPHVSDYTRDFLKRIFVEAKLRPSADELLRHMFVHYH
Chain of EPHB6 (O15197 whole entry): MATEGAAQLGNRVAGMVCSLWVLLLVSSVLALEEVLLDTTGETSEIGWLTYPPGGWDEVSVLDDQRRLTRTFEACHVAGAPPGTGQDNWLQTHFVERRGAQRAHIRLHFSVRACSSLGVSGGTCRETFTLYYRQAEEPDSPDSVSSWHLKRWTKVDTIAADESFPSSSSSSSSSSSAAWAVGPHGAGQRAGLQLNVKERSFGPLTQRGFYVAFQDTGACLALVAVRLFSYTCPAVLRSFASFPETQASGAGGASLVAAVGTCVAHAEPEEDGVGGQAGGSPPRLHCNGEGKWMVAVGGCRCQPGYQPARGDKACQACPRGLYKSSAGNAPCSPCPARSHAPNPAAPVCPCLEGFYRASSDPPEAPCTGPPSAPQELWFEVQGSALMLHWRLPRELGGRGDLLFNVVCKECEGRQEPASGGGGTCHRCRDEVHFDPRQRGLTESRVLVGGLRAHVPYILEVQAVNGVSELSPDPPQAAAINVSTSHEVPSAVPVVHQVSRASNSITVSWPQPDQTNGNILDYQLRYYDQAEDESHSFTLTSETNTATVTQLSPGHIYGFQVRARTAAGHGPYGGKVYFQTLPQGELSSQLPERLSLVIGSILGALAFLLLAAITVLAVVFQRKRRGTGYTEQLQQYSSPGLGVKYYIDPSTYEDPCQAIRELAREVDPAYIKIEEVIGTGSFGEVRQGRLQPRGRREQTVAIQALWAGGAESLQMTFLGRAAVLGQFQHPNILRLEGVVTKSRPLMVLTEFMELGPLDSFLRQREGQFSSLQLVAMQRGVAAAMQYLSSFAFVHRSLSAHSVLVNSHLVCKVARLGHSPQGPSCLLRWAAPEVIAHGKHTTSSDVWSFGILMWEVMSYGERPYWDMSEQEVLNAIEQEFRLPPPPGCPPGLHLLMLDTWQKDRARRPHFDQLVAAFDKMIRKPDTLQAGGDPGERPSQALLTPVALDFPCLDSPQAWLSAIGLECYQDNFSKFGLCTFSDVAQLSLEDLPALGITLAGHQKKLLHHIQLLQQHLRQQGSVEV
Chain of TESK1 (Q15569 whole entry): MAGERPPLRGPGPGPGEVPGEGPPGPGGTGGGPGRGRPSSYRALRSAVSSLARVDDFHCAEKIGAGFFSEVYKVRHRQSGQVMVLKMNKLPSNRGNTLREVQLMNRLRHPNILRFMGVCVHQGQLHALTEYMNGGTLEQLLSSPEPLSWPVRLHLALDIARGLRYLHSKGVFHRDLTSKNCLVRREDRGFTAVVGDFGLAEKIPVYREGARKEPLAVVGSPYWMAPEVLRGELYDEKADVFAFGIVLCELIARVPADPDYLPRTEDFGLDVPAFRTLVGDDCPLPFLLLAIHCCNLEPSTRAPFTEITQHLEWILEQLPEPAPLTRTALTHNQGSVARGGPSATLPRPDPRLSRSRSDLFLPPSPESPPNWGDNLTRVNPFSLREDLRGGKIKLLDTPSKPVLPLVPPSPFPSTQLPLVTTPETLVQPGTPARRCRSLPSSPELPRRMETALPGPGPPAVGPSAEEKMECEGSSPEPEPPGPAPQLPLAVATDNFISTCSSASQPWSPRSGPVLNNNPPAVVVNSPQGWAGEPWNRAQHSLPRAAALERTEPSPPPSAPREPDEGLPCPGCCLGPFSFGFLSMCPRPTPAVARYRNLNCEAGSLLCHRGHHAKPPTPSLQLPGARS
T3 sequence (Q8NI60 whole entry): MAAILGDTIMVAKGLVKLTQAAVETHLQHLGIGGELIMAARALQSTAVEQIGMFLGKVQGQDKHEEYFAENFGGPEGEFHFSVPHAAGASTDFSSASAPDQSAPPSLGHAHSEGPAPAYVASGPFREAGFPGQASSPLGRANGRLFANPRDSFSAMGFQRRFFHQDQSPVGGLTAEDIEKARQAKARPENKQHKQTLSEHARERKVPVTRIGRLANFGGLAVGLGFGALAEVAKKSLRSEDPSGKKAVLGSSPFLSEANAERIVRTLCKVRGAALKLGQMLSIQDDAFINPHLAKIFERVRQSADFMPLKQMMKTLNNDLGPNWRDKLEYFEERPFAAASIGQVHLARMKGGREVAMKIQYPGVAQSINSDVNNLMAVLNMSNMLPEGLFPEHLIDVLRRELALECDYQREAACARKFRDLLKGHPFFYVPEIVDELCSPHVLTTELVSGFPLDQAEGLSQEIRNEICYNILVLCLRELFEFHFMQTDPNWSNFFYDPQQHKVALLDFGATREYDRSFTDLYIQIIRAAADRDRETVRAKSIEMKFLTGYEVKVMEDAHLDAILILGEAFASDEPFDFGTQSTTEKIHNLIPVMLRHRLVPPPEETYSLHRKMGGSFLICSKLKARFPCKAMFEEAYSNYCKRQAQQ

In the case of `Cc1ccc(NC(=O)c2cccc(C(F)(F)F)c2)cc1Nc1cc(-c2cccnc2)nc2[nH]ccc12` [HZX-02-059], the remaining binding at 1 µM [1] was 77%, the remaining binding at 1 µM [2] was 100% and the remaining binding at 1 µM [3] was 100%. It also gave a remaining binding at 1 µM [4] of 92%, a remaining binding at 1 µM [5] of 90% and a remaining binding at 1 µM [6] of 98%. For the same compound, the remaining binding at 1 µM [7] was 89%, the remaining binding at 1 µM [8] was 49% and the remaining binding at 1 µM [9] was 79%. The remaining binding at 1 µM [10] was 100%, the remaining binding at 1 µM [11] was 90% and the remaining binding at 1 µM [12] was 97%. The remaining binding at 1 µM [13] was 95%, the remaining binding at 1 µM [14] was 79% and the remaining binding at 1 µM [15] was 42%. The remaining binding at 1 µM [16] was 89%, the remaining binding at 1 µM [17] was 74% and the remaining binding at 1 µM [18] was 66%. For the same compound, the remaining binding at 1 µM [19] was 88%, the remaining binding at 1 µM [20] was 76% and the remaining binding at 1 µM [21] was 77%. For the same compound, the remaining binding at 1 µM [22] was 100%, the remaining binding at 1 µM [23] was 100% and the remaining binding at 1 µM [24] was 84%.
